Our source for the IC50, CC50 and viability values is patent publication US20250009742A1 (priority 2021, published 2025).

The term IC50 denotes the point on the concentration scale where inhibition reaches its midpoint. Read a low IC50 as greater potency in that assay. The CC50 is the concentration at which the toxic effect on the cells reaches its halfway point. Lower therefore signals greater toxicity to the cells.

The subject of data set [1] is intracellular HBV DNA. In words: Real-time PCR for intracellular HBV DNA in HepAD38 cells. In kind it is cell-based. The following applies: Hepatitis B virus, HePAD38, 65 h, 65 hours treatment. Background: Real-time PCR tracks product formation cycle by cycle.
A short description of data set [2]: Cell viability assay (EZ-Cytox), cytotoxicity. In kind it is cell-based. The conditions noted are these: human, HepAD38 cells; for viability at 65 h, 100 µM: read-out: Cytotoxicity % Livability (@100 μM). How it is done:
HepAD38 cells were cultured for 2 days in Dulbecco's Modified Eagle's medium (Welgene, LM001-05) supplemented with 10% FBS without tetracycline. […] After 65 hours of treatment, viability was measured using EZ-Cytox cell viability assay kit (Daeil Lab Service) according to the manufacturer's instructions. The absorbance was measured at 450 nm using a spectrophotometer (Spark, Tecan).

In data set [1], `O=C(Nc1ccc(F)c(Cl)c1)N(Cc1n[nH]c2c1CCCO2)c1cc[nH]n1` [Example 135, 3-(3-chloro-4-fluorophenyl)-1-(1H-pyrazol-3-yl)-1-((1,4,5,6-tetrahydropyrano[2,3-c]pyrazol-3-yl)methyl)urea] came in with a half-inhibitory concentration (IC50) of 0.2 µM. For the same compound, the CC50 at 65 h in data set [2] was above 100 µM.
For `COc1ncc(N(Cc2n[nH]c(C(F)(F)F)c2Br)C(=O)Nc2ccc(F)c(C(F)F)c2)cn1` [Example 194, 1-((4-bromo-5-(trifluoromethyl)-1H-pyrazol-3-yl)methyl)-3-(3-(difluoromethyl)-4-fluorophenyl)-1-(2-methoxypyrimidin-5-yl)urea], the IC50 in data set [1] was found to be 0.021 µM. The compound further registered a cytotoxic concentration (CC50) at 65 h in data set [2] above 100 µM.
`COC12CC(N(Cc3cc(C(F)(F)F)[nH]n3)C(=O)Nc3ccc(F)c(C(F)F)n3)(C1)C2` [Example 214, 3-(6-(difluoromethyl)-5-fluoropyridin-2-yl)-1-(3-methoxybicyclo[1.1.1]pentan-1-yl)-1-((5-(trifluoromethyl)-1H-pyrazol-3-yl)methyl)urea]: half-maximal inhibition in data set [1] (IC50) was put at 0.22 µM. For the same compound, in data set [2], the CC50 at 65 h was above 100 µM and the viability at 65 h, 100 µM is 76.8%.
On to `COc1ncc(N(Cc2cc(C#N)[nH]n2)C(=O)Nc2ccc(F)c(C(F)(F)F)c2)cn1` [Example 215, 1-((5-cyano-1H-pyrazol-3-yl)methyl)-3-(4-fluoro-3-(trifluoromethyl)phenyl)-1-(2-methoxypyrimidin-5-yl)urea], for which the concentration for half-maximal inhibition (IC50) in data set [1] was 0.02 µM. In data set [2], the half-maximal cytotoxic concentration (CC50) at 65 h was above 100 µM and the viability at 65 h, 100 µM was found to be 67%.
Turning to `COc1ncc(N(Cc2cc(C(F)F)[nH]n2)C(=O)Nc2ccc(F)c(C#N)c2)cn1` [Example 155, 3-(3-cyano-4-fluorophenyl)-1-((5-(difluoromethyl)-1H-pyrazol-3-yl)methyl)-1-(2-methoxypyrimidin-5-yl)urea], the IC50 in data set [1] is 0.035 µM. Besides, in data set [2], the half-maximal cytotoxic concentration (CC50) at 65 h was above 100 µM and the viability at 65 h, 100 µM amounted to 97%.
`CC(C)(O)c1cc(N(Cc2n[nH]c3c2CCCO3)C(=O)Nc2ccc(F)c(Cl)c2)on1` [Example 109, 3-(3-chloro-4-fluorophenyl)-1-(3-(2-hydroxypropan-2-yl)isoxazol-5-yl)-1-((1,4,5,6-tetrahydropyrano[2,3-c]pyrazol-3-yl)methyl)urea] had a 50% inhibitory concentration (IC50) in data set [1] of 0.15 µM. Moreover, in data set [2], the half-maximal cytotoxic concentration (CC50) at 65 h was above 100 µM and the viability at 65 h, 100 µM amounted to 82%.
In the same order, the values of `COc1ncc(N(Cc2cc(C(F)(F)F)[nH]n2)C(=O)Nc2ccc(F)c(Cl)c2)cc1C#N` [Example 119, 3-(3-chloro-4-fluorophenyl)-1-(5-cyano-6-methoxypyridin-3-yl)-1-((5-(trifluoromethyl)-1H-pyrazol-3-yl)methyl)urea] are 0.32 µM, below 50 µM and 18.8%.
For the compound `CC(C)(O)c1cc(N(Cc2n[nH]c3c2CCCO3)C(=O)Nc2ccc(F)c(Cl)c2)ccn1` [Example 113, 3-(3-chloro-4-fluorophenyl)-1-(2-(2-hydroxypropan-2-yl)pyridin-4-yl)-1-((1,4,5,6-tetrahydropyrano[2,3-c]pyrazol-3-yl)methyl)urea], in data set [1], the IC50 is above 1.1 µM. In data set [2], the cytotoxic concentration (CC50) at 65 h is above 100 µM and the viability at 65 h, 100 µM worked out at 102%.
`COc1cncc(N(Cc2n[nH]c3c2COCC3)C(=O)Nc2ccc(F)c(Cl)c2)c1` [Example 75, 3-(3-chloro-4-fluorophenyl)-1-(5-methoxypyridin-3-yl)-1-((1,4,6,7-tetrahydropyrano[4,3-c]pyrazol-3-yl)methyl)urea] yielded an IC50 in data set [1] of 0.036 µM. In data set [2], the cytotoxic concentration (CC50) at 65 h is above 100 µM and the viability at 65 h, 100 µM worked out at 92.1%.
As to `COc1ncc(N(Cc2cc(C(F)F)[nH]n2)C(=O)Nc2cccc(C(F)F)n2)cn1` [Example 179, 1-((5-(difluoromethyl)-1H-pyrazol-3-yl)methyl)-3-(6-(difluoromethyl)pyridin-2-yl)-1-(2-methoxypyrimidin-5-yl)urea], the 50% inhibitory concentration (IC50) in data set [1] was 0.7 µM. Moreover, in data set [2], the CC50 at 65 h is above 100 µM and the viability at 65 h, 100 µM stood at 79.3%.
Take `COc1ncc(N(Cc2n[nH]c(C(F)(F)F)c2C(C)(C)O)C(=O)Nc2ccc(F)c(Cl)c2)cn1` [Example 102, 3-(3-chloro-4-fluorophenyl)-1-((4-(2-hydroxypropan-2-yl)-5-(trifluoromethyl)-1H-pyrazol-3-yl)methyl)-1-(2-methoxypyrimidin-5-yl)urea]: the IC50 in data set [1] was above 1.1 µM. Moreover, in data set [2], the CC50 at 65 h was above 66 µM and the viability at 65 h, 100 µM is 3.8%.
As for `COc1ccc(N(Cc2nn(CCO)c3c2CCC3)C(=O)Nc2ccc(F)c(Cl)c2)cn1` [Example 67, 3-(3-chloro-4-fluorophenyl)-1-((1-(2-hydroxyethyl)-1,4,5,6-tetrahydrocyclopenta[c]pyrazol-3-yl)methyl)-1-(6-methoxypyridin-3-yl)urea], in data set [1], the IC50 was above 0.3 µM. In data set [2], this compound showed a cytotoxic concentration (CC50) at 65 h above 100 µM.
As for `COCc1c(CN(C(=O)Nc2ccc(F)c(Cl)c2)c2ccc(OC)nc2)n[nH]c1C(F)F` [Example 82, 3-(3-chloro-4-fluorophenyl)-1-((5-(difluoromethyl)-4-(methoxymethyl)-1H-pyrazol-3-yl)methyl)-1-(6-methoxypyridin-3-yl)urea], the IC50 in data set [1] is above 1.1 µM. Besides, in data set [2], the cytotoxic concentration (CC50) at 65 h was above 100 µM and the viability at 65 h, 100 µM was 85.8%.
Regarding `COc1ncc(N(Cc2cc(C(F)(F)F)[nH]n2)C(=O)Nc2ccc(F)c(C(F)F)c2)cn1` [Example 189, 3-(3-(difluoromethyl)-4-fluorophenyl)-1-(2-methoxypyrimidin-5-yl)-1-((5-(trifluoromethyl)-1H-pyrazol-3-yl)methyl)urea], half-maximal inhibition in data set [1] (IC50) was put at 0.0065 µM. Further, in data set [2], the half-maximal cytotoxic concentration (CC50) at 65 h is above 100 µM and the viability at 65 h, 100 µM was 58%.
The matching figures for `COc1ncc(N(Cc2n[nH]c(C(F)(F)F)c2C(C)(C)O)C(=O)Nc2ccc(F)c(C(F)F)c2)cn1` [Example 207, 3-(3-(difluoromethyl)-4-fluorophenyl)-1-((4-(2-hydroxypropan-2-yl)-5-(trifluoromethyl)-1H-pyrazol-3-yl)methyl)-1-(2-methoxypyrimidin-5-yl)urea]: 0.74 µM, above 100 µM and 87.7%.
In the same order, the values of `COc1ccc(N(Cc2cc(C(F)(F)F)[nH]n2)C(=O)Nc2ccc(F)c(C(F)F)c2)cn1` [Example 188, 3-(3-(difluoromethyl)-4-fluorophenyl)-1-(6-methoxypyridin-3-yl)-1-((5-(trifluoromethyl)-1H-pyrazol-3-yl)methyl)urea] are 0.016 µM, above 100 µM and 97.9%.
Regarding `CNS(=O)(=O)c1ccc(N(Cc2n[nH]c3c2CCOC3)C(=O)Nc2ccc(F)c(Cl)c2)cc1` [Example 23, 4-(3-(3-chloro-4-fluorophenyl)-1-((1,4,5,7-tetrahydropyrano[3,4-c]pyrazol-3-yl)methyl)ureido)-N-methylbenzenesulfonamide], the IC50 in data set [1] was above 1.1 µM. The compound further displayed a CC50 at 65 h in data set [2] above 100 µM.
On to `COc1cc(N(Cc2cc(C(F)(F)F)[nH]n2)C(=O)Nc2ccc(F)c(Cl)c2)ccn1` [Example 74, 3-(3-chloro-4-fluorophenyl)-1-(2-methoxypyridin-4-yl)-1-((5-(trifluoromethyl)-1H-pyrazol-3-yl)methyl)urea], for which inhibition in data set [1] was half-maximal at 0.022 µM (IC50). In data set [2], the CC50 at 65 h is above 100 µM and the viability at 65 h, 100 µM came to 55.6%.
